Assay results published in ChEMBL document CHEMBL1148089, “Inhibitors of protein tyrosine kinase pp60v-src: sterol sulfates from the brittle star Ophiarachna incrassata” (J Nat Prod, 1994).

Assay: Inhibition of Rous sarcoma virus v-Src

| IC50 | Structure (SMILES) |
| --- | --- |
| 31 µM | CC(C)CCC[C@@H](COS(=O)(=O)O)[C@H]1CC[C@H]2[C@@H]3CC=C4C[C@H](OS(=O)(=O)O)CC[C@]4(C)[C@H]3CC[C@]12C |
| 65 µM | CC(C)CCC[C@@H](COS(=O)(=O)O)[C@H]1CC[C@H]2[C@@H]3CC=C4C[C@H](OS(=O)(=O)O)C[C@@H](O)[C@]4(C)[C@H]3CC[C@]12C |
| 62 µM | CC(C)CCC[C@@H](COS(=O)(=O)O)[C@H]1CC[C@H]2[C@@H]3CC[C@@H]4[C@H](O)[C@H](OS(=O)(=O)O)CC[C@]4(C)[C@H]3[C@@H](O)C[C@]12C |
| 12 µM | CC(CCC[C@@H](C)[C@H]1CC[C@H]2[C@@H]3CC=C4C[C@H](OS(=O)(=O)O)[C@@H](OS(=O)(=O)O)C[C@]4(C)[C@H]3CC[C@]12C)COS(=O)(=O)O (some centres not stated) |
| 1.5 µM | C[C@@]12CCC(=O)c3coc(c31)C(=O)c1cc3c(cc12)C(=O)C=CC3=O [HELENAQUINONE] |
| 0.6 µM | C[C@@]12CCC(=O)c3coc(c31)C(=O)c1cc3c(O)ccc(O)c3cc12 [HELENAQUINOL] |
| 11 µM | CC(CCC[C@@H](C)[C@H]1CC[C@H]2[C@@H]3CC[C@H]4C[C@H](OS(=O)(=O)O)[C@@H](OS(=O)(=O)O)C[C@]4(C)[C@H]3CC[C@]12C)COS(=O)(=O)O (some centres not stated) |
